Data set [1] concerns p53 reporter system in p53 wild-type A549 cell line. Description: p53-dependent transcription reporter assay, A549RE. It counts as cell-based. The following applies: p53 +ve cell type; maximal fold induction over DMSO control. Here is the method: (§1) Stable lines of U2OS (osteosarcoma; Wild-type p53 positive), HCT116 (colorectal carcinoma; Wild-type p53 positive) and H1299 (lung non-small cell carcinoma; p53 null) carrying p53-dependent transcriptional regulatory element linked to a Luciferase reporter gene and H1299 carrying a 5′-regulatory region of GADD45 linked to Luciferase were used.
(§2) Day 2: The compounds or control drugs were diluted in dimethyl sulfoxide (DMSO) and added to the wells to create 6-points/2-fold serial dilution (20, 10, 5, 2.5, 1.25, 0.625 and 0 μM) for each compound. The DMSO concentration was adjusted to 0.2% in all wells.
(§3) Day 3: Twenty to 24 hours after compound addition, cells were twice washed with PBS and lysed with Glo-lysis buffer (100 μl/well, Promega; Cat#E2661). Plates were subjected to gentle agitation on a table-top shaker for 5 minutes at room temperature. Fifty μl of lysate was transferred to an assay plate to test for luciferase activity and mixed with 2× assay buffer (Promega; Cat# E1483). The reaction mixture was left at room temperature for 2 minutes and then luminescence was measure by a luminometer (Victor™, 1420 Multilabel Counter, Wallac).
(§4) Data analysis was done on Excel software (Microsoft). Values in Table 4 represent maximal fold induction over negative control (DMSO only) and are the mean of at least duplicate experiments.
A549RE is a p53 wild-type A549 cell line containing p53 reporter system. If the compound acts against MDM2, p53 activity increases.

The subject of the next data set is U2OS cells. Description: PAD anti-proliferation assay, U2OS. The class given is cell-based. To be noted: Homo sapiens, 48 hours, read-out: PAD/U20S IC50. How it is done: (§5) A549 (ATCC# CCL 185), HeLa (ATCC# CCL 2), HCT116 (ATCC# CCL-247), and H 1299 (ATCC# CRL-5803) cells were maintained in T175 flasks following the ATCC recommended media and handling procedures. Flasks reaching approximately 70% confluency were trypsinized and resuspended in RPMI media (Cell Gro catalog number 10 040 CM) modified to contain 5% FBS, 100 ug/mlPen/Strep (Cell Gro catalog number 30 002 CL), and 0.3 mg/ml L Glutamine (Cell Gro catalog number 25 003 CL). A 20,000 cells/ml solution was made for plating. Cells were plated in black Packard 96 well plates by placing 100 μl per well (2,000 cells per well).
(§6) Compounds and additional media were added 24′ hours after cell plating. A compound master plate was created with concentrations 500 times greater than the final concentration added to the cells. All compound testing was done in duplicate using 3 fold dilutions starting with 10 mM. All outside wells (and 4 internal wells) were DMSO controls. Taxol and at least one additional control were run on all plates. Three microliters of the compound master plate were added to deep well blocks containing 750 μl of RPMI media. One hundred microliters were transferred from the compound/media deep well blocks to the plated cells resulting in a 500 fold dilution of the compounds. Cells were grown at 37° C., 5% CO2 for 48 hours.
(§7) Cells to be analyzed by photography were fixed and stained. One hundred microliters of media were removed and 100 μl of 2% paraformaldehyde was added to each well. Plates were left on the benchtop for 45 minutes. A staining solution containing 1.55 μl of 1 mg/ml DAPI added to 18.75 ml PBS was warmed for 15 minutes at 37° C. The cells were aspirated prior to washing with 100 μl of PBS. Seventy microliters of PBS were aspirated and 170 μl of the DAPI solution were added to each well of fixed cells. Plates were left at room temperature for one hour then aspirated and washed twice with 100 μl of PBS. The stained cells were left at 4° C. for a minimum of 16 hours before photographic analysis with Array Scan II (Cellomics). Analysis of the photographic images to determine numbers of live cells (proliferation), apoptotic cells and dead cells, were according to the methods described in U.S. Provisional Patent Application Ser. No. 60/406,714, which incorporated herein in its entirety.
Some cell plates were treated with Promega Cell titer Aqueous 1 kit (Promega—VWR catalog number G3580). In this case, 48 hours after the test compound were added, 100 μl of media were removed and 20 μl of cell titer reagent were added to all wells. Plates were incubated at 37° C. for 45 minutes prior to absorbance reads on the Wallac plate reader at 490 nm for 0.1 sec/well. Similar experiments can be carried out using cell lines U2OS and DLD-1.

A further data set deals with MDM2 (Homo sapiens, UniProt Q00987). Description: MDM2 gel-based E3 ligase assay. To be noted: compound at 20 μM; result in words. The class given is biochemical. Here is the method:
E3 (His-APC11/APC2—“APC”) auto-ubiquitination was measured as described in U.S. patent application Ser. No. 09/826,312 (Publication No. US-2002-0042083-A1), which is incorporated herein in its entirety. Details of the protocol are described below. Activity in the presence of compound was determined relative to a parallel control in which only DMSO is added. The IC50 values were typically determined using 6 or 8 different concentrations of compound, although as few as 2 concentrations may be used to approximate the IC50 values.
Corning 96-well plates (Corning 3650) were blocked with 100 μl of Blocking Buffer for 1 hour at room temperature. The plates were washed 4 times with 225 μl of 1×PBS and 80 μl of the reaction buffer were added that contained 100 ng/well of Flag-ubiquitin. To this, 10 μl of the test compound diluted in DMSO were added. After the test compound was added, 10 μl of E1 (human), E2 (Ubch5c) and APC in Protein Buffer were added to obtain a final concentration of 5 ng/well of E1, 20 ng/well of E2 and 100 ng/well APC. The plates were shaken for 10 minutes and incubated at room temperature for 1 hour. After incubation, the reaction was stopped by adding 25 μl of loading buffer (non-reducing) per well and the plates were heated at 95° C. for 5 minutes. An aliquot of each well was run on a 10% NugePage Gel and analyzed by Western Blot using the antibody mix and Lumino substrate described below. The luminescence was measured by using a BMG luminescence microplate reader.
hMDM2 Plate/Gel is Mouse double minute 2, human homolog. This protein belongs to the E3 RING finger ligase group.

The subject of data set [2] is p53 reporter system in p53 wild-type U2OS cell line. Description: p53-dependent transcription reporter assay, U20SRE. The class given is cell-based. To be noted: p53 +ve cell type; maximal fold induction over DMSO control.
Source text: as §1
Day 1: Cells were re-plated into 96-well plates at suitable densities to make 50-60% confluence on Day 2. The plating densities are as follows: 7.5×10^3 cells/well (or 2.5×10^4 cells/cm^2) for U2OS; 1.5×10^4 cells/well (or 5.0×10^4 cells/cm^2) for HCT116; and 1.0×10^4 cells/well (or 3.3×10^4 cells/cm^2) for H1299.
as §2, §3, §4
U20SRE is a p53 wild-type U2OS cell line containing p53 reporter system. If the compound acts against MDM2, p53 activity increases.

The test system of the next data set is H1299 cells. Description: PAD anti-proliferation assay, H1299. It counts as cell-based. The following applies: Homo sapiens, NCI-H1299, 48 hours. Here is the method: as §5, §6, §7

Chain of MDM2 (Q00987 whole entry): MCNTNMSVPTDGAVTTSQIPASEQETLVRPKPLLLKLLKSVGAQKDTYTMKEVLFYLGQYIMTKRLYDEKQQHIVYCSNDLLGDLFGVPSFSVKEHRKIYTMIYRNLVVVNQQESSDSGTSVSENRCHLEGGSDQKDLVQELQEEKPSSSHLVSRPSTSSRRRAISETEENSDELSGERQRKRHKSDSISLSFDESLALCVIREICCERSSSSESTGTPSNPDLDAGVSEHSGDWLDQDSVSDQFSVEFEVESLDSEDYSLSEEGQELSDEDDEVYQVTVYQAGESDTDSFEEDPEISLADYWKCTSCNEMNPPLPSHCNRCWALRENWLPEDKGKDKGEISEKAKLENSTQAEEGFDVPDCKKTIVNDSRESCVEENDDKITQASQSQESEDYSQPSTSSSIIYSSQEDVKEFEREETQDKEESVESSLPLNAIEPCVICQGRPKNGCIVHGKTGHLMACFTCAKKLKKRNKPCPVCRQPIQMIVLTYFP

With `O=C(c1ccc(CN(Cc2cccc(OC(F)(F)F)c2)c2nc(-c3ccccc3)cs2)cc1)N1CCNCC1` [compound 275], in data set [1], the “Fold Induction of p53 activity, A549RE” value is given as “a (a means 2 or less)”. The IC50 in the data set on U2OS cells and with H1299 cells was 1 to 20 µM throughout. Also, the “MDM2 Gel 20 μM” value at MDM2 is “Weak”. For the same molecule, the “Fold Induction of p53 activity, U20SRE” value in data set [2] is reported as “b (b means greater than 2)”.

`O=C(c1ccc(CN(Cc2cccc(OC(F)(F)F)c2)c2nc(-c3ccc4ccccc4c3)cs2)cc1)N1CCNCC1` [compound 282, 4-(2-naphthyl)-N-[4-(piperazin-1-ylcarbonyl)benzyl]-N-[3-(trifluoromethoxy)benzyl]-1,3-thiazol-2-amine]: in data set [1], the “Fold Induction of p53 activity, A549RE” value is “a (a means 2 or less)”. In addition, the IC50 with U2OS cells and with H1299 cells was 1 to 20 µM in each case. The “MDM2 Gel 20 μM” value at MDM2 is listed as “Potent”. In addition, in data set [2], the “Fold Induction of p53 activity, U20SRE” value is listed as “b (b means greater than 2)”.

For `COc1cccc(-c2csc(N(Cc3ccc(C(=O)N4CCNCC4)cc3)Cc3cccc(OC(F)(F)F)c3)n2)c1` [compound 351], the “Fold Induction of p53 activity, A549RE” value in data set [1] was “a (a means 2 or less)”. Besides, the IC50 in the data set on U2OS cells and with H1299 cells was 1 to 20 µM throughout. In addition, the “MDM2 Gel 20 μM” value on MDM2 is “Active”. The “Fold Induction of p53 activity, U20SRE” value in data set [2] is given as “b (b means greater than 2)”.

With `COc1cccc(-c2csc(N(CCOc3ccccc3)Cc3ccc(C(=O)N4CCNCC4)cc3)n2)c1` [compound 352], the “Fold Induction of p53 activity, A549RE” value in data set [1] is given as “a (a means 2 or less)”. Moreover, the IC50 in the data set with U2OS cells and in the data set on H1299 cells was 1 to 20 µM in each case. For the same molecule, on MDM2, the “MDM2 Gel 20 μM” value is given as “Weak”. The “Fold Induction of p53 activity, U20SRE” value in data set [2] was “b (b means greater than 2)”.

In the case of `O=C(c1ccc(CN(CCOc2ccccc2)c2nc(-c3ccc(Cl)c(Cl)c3)cs2)cc1)N1CCNCC1` [compound 360], in data set [1], the “Fold Induction of p53 activity, A549RE” value is “a (a means 2 or less)”. Also, the IC50 in the data set on U2OS cells and with H1299 cells was 1 to 20 µM each time. Besides, the “MDM2 Gel 20 μM” value on MDM2 is on record as “Potent”. For the same molecule, in data set [2], the “Fold Induction of p53 activity, U20SRE” value was “b (b means greater than 2)”.

With `COc1cccc(CN(Cc2ccc(C(=O)N3CCNCC3)cc2)c2nc(-c3ccc(Br)cc3)cs2)c1OC` [compound 353], the “Fold Induction of p53 activity, A549RE” value in data set [1] was “a (a means 2 or less)”. The IC50 in the data set with U2OS cells and in the data set with H1299 cells was 1 to 20 µM in each case. For the same molecule, at MDM2, the “MDM2 Gel 20 μM” value was “Active”. Besides, in data set [2], the “Fold Induction of p53 activity, U20SRE” value is on record as “a (a means 2 or less)”.

The values are drawn from patent US20060160869A1, “Ubiquitin ligase inhibitors” (Rigel Pharmaceuticals, Inc., priority 2005, published 2006).
